Source: ChEMBL document CHEMBL1136877, “2,4(5)-diarylimidazoles as inhibitors of hNaV1.2 sodium channels: pharmacological evaluation and structure-property relationships” (Bioorg Med Chem, 2009)
Calls of active or inactive are those of the source. The rule behind the calls is not given here.

How the values were obtained:
[1] = target: T1, Sodium channel protein type 2 subunit alpha (Homo sapiens, UniProt Q99250); test: Inhibition of human Nav1.2 channel expressed in HEK cells at 10 uM by patch-clamp electrophysiology method; assay type: cell-based; settings: HEK293
Target sequence in this assay (Q99250 whole entry, looked up): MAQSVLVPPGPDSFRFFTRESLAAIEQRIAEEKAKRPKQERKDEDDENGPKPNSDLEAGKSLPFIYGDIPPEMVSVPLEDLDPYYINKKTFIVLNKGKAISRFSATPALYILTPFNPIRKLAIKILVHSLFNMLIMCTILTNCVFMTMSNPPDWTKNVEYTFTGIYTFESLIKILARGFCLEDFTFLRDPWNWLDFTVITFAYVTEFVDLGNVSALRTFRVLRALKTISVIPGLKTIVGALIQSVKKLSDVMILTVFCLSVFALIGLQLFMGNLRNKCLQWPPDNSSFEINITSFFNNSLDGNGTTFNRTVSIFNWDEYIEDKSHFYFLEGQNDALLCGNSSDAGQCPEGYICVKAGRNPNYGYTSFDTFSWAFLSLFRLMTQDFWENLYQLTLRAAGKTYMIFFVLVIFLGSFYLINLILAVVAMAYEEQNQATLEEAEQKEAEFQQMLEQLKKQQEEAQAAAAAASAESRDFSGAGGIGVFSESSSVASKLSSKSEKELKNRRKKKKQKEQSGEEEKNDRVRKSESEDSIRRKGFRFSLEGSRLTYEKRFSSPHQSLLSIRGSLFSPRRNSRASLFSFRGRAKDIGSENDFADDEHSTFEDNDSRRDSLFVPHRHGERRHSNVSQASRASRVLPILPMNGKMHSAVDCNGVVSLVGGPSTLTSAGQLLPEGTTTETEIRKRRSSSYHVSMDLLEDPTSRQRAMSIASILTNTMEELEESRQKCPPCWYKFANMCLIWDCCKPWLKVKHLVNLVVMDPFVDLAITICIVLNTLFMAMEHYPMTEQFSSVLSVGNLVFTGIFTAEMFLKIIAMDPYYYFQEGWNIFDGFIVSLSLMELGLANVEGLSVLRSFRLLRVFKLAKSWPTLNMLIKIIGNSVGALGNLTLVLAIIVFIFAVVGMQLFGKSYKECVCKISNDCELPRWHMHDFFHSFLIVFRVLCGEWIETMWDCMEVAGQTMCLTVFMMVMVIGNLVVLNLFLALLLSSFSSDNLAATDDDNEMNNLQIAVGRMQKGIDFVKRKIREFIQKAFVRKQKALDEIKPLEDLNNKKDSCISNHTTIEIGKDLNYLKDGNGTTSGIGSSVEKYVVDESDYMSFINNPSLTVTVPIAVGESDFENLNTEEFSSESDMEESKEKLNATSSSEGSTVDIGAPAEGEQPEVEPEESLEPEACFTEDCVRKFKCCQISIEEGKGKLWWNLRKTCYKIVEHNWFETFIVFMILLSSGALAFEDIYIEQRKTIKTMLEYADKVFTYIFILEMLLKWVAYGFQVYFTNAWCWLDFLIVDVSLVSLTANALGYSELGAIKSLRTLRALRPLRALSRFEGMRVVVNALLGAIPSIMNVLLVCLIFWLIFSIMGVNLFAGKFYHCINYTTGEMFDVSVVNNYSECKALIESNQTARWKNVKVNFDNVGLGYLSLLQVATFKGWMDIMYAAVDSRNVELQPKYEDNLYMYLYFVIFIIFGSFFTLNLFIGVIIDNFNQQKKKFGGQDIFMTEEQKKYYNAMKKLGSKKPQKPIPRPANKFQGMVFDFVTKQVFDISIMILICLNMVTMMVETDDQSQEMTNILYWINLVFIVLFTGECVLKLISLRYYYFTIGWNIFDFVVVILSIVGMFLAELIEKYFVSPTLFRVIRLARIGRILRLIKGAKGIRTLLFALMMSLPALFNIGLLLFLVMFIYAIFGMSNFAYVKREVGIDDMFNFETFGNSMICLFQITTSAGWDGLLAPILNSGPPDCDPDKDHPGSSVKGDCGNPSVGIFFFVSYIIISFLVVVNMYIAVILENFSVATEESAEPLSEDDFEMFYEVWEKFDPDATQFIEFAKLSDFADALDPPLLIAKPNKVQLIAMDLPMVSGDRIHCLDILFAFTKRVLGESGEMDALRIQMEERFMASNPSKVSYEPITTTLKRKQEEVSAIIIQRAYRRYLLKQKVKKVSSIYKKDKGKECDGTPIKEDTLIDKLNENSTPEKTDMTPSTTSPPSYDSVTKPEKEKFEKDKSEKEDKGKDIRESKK

[2] = target: T1, Sodium channel protein type 2 subunit alpha; test: Inhibition of human Nav1.2 channel expressed in HEK cells at 100 uM by patch-clamp electrophysiology method; assay type: cell-based; settings: HEK293
Target sequence in this assay (Q99250 whole entry, looked up): as above

[3] = Octanol-buffer partition coefficient, log D at pH 7.4 by shake-flask method; assay type: physicochemical
[4] = Dissociation constant, pKa by potentiometric pH-metric method; assay type: physicochemical
[5] = target: T1, Sodium channel protein type 2 subunit alpha; test: Inhibition of human Nav1.2 channel expressed in HEK cells by patch-clamp electrophysiology method; assay type: cell-based, HEK293
Target sequence in this assay (Q99250 whole entry): as the sequence (Q99250 whole entry, looked up) above

| inhibition [1] | inhibition [2] | logD [3] | pKa [4] | IC50 [5] | Compound |
| --- | --- | --- | --- | --- | --- |
| 49.2% | 95.2% | 4.54 | 5.11 |  | FC(F)(F)c1cccc(-c2nc(-c3ccccc3)c[nH]2)c1 |
| 7.8% | 80.5% | 3.72 | 5.65 | 40.6 µM | c1ccc(-c2c[nH]c(-c3ccccc3)n2)cc1 |
| inactive | 30.3% | 3.95 | 5.12 |  | O=[N+]([O-])c1ccc(-c2c[nH]c(-c3ccccc3)n2)cc1 |
| 12.1% | 35.1% |  |  | > 100 µM | Nc1nnc(-c2cccc(Cl)c2Cl)c(N)n1 [LAMOTRIGINE] |
|  |  | 4.9 | 5.19 |  | FC(F)(F)c1ccc(-c2nc(-c3ccccc3)c[nH]2)cc1 |
| inactive | 20.4% | 3.89 | 4.92 |  | O=[N+]([O-])c1cccc(-c2nc(-c3ccccc3)c[nH]2)c1 |
| 86.9% | 100% |  |  | 2.5 µM | O=[N+]([O-])c1ccc(-c2nc(-c3cccc(C(F)(F)F)c3)c[nH]2)cc1 |
| 100% | 100% |  |  | 0.2 µM | FC(F)(F)c1cccc(-c2c[nH]c(-c3cccc(C(F)(F)F)c3)n2)c1 |
|  |  | 4.76 | 5.45 |  | Clc1cccc(-c2c[nH]c(-c3ccccc3)n2)c1 |
| 14.2% | 35.6% | 3.74 | 5.58 |  | COc1cccc(-c2c[nH]c(-c3ccccc3)n2)c1 |
| 57.1% | 92.6% | 4.06 | 4.74 |  | O=[N+]([O-])c1ccc(-c2nc(-c3ccccc3)c[nH]2)cc1 |
| inactive | 33.3% | 3.66 | 5.83 |  | COc1ccc(-c2c[nH]c(-c3ccccc3)n2)cc1 |
| 27.5% | 43.6% |  |  | > 100 µM | FC(F)(F)c1cccc(-c2c[nH]c(-c3ccc(Cl)cc3)n2)c1 |
| 7.5% | 92.2% | 4.54 | 5.12 |  | Clc1cccc(-c2nc(-c3ccccc3)c[nH]2)c1 |
| 31.5% | 96.6% | 4.53 | 5.47 |  | Clc1ccc(-c2c[nH]c(-c3ccccc3)n2)cc1 |
| inactive | 41.7% | 3.84 | 5.57 |  | COc1cccc(-c2nc(-c3ccccc3)c[nH]2)c1 |
| 82.9% | 100% | 4.72 | 5.27 | 2.7 µM | FC(F)(F)c1cccc(-c2c[nH]c(-c3ccccc3)n2)c1 |
|  |  | 3.62 | 6.03 |  | COc1ccc(-c2nc(-c3ccccc3)c[nH]2)cc1 |
| 91.6% | 100% | 4.78 | 5.31 | 1.4 µM | FC(F)(F)c1ccc(-c2c[nH]c(-c3ccccc3)n2)cc1 |
| 15.6% | 85.8% | 3.9 | 4.82 |  | O=[N+]([O-])c1cccc(-c2c[nH]c(-c3ccccc3)n2)c1 |
| 92.5% | 100% | 4.27 | 5.37 | 1.4 µM | Clc1ccc(-c2nc(-c3ccccc3)c[nH]2)cc1 |
